Assay results: the NIST ThermoML archive (doi:10.1016/j.tca.2011.02.002)

Columns and labels:
[1] = xn = mol fraction of the nth substance listed; details: 101 kPa, Liquid; for mass density: Vibrating tube method
[2] = excess molar enthalpy (molar enthalpy of mixing); xn = mol fraction of the nth substance listed; details: 308.15 K, 101 kPa, Liquid, 2-drop calorimeter (CSC 4600_

Cc1cccnc1 [3-methylpyridine] + C1CCOCC1
[1]
Details | mass density, 298.15 K [kg/m3] | mass density, 303.15 K [kg/m3] | mass density, 308.15 K [kg/m3] | speed of sound, 298.15 K [m/s] | speed of sound, 303.15 K [m/s] | speed of sound, 308.15 K [m/s]
x2 = 0 | 952.002 | 947.449 | 942.831 | 1424 | 1404 | 1384
x2 = 0.0562 | 948.099 | 943.521 | 938.854 | 1415.9 | 1395.6 | 1375.6
x2 = 0.0848 | 946.113 | 941.519 | 936.827 | 1411.8 | 1391.4 | 1371.4
x2 = 0.1357 | 942.576 | 937.954 | 933.219 | 1404.5 | 1383.9 | 1363.8
x2 = 0.1826 | 939.306 | 934.651 | 929.891 | 1397.8 | 1377.1 | 1356.8
x2 = 0.2461 | 934.857 | 930.166 | 925.361 | 1388.8 | 1367.8 | 1347.2
x2 = 0.2833 | 932.236 | 927.522 | 922.691 | 1383.3 | 1362.3 | 1341.5
x2 = 0.3345 | 928.61 | 923.861 | 919.004 | 1375.8 | 1354.5 | 1333.6
x2 = 0.3813 | 925.271 | 920.499 | 915.608 | 1368.6 | 1347.3 | 1326.2
x2 = 0.4262 | 922.049 | 917.247 | 912.336 | 1361.8 | 1340.3 | 1319.2
x2 = 0.4827 | 917.964 | 913.129 | 908.186 | 1353 | 1331.2 | 1310.1
x2 = 0.5378 | 913.951 | 909.085 | 904.106 | 1344.3 | 1322.4 | 1301.2
x2 = 0.5924 | 909.933 | 905.038 | 900.027 | 1335.5 | 1313.3 | 1292.3
x2 = 0.6382 | 906.545 | 901.626 | 896.591 | 1328 | 1305.7 | 1284.7
x2 = 0.6982 | 902.068 | 897.114 | 892.051 | 1318.1 | 1295.6 | 1274.7
x2 = 0.7568 | 897.664 | 892.682 | 887.584 | 1308.6 | 1285.8 | 1264.9
x2 = 0.8138 | 893.349 | 888.335 | 883.218 | 1299.2 | 1276.4 | 1255.4
x2 = 0.8825 | 888.124 | 883.068 | 877.926 | 1288.2 | 1265.1 | 1243.9
x2 = 0.9321 | 884.334 | 879.246 | 874.092 | 1280.3 | 1257.2 | 1235.7

[2]
Details | excess molar enthalpy [kcal/mol]
x2 = 0.0532 | 0.0059
x2 = 0.1118 | 0.0118
x2 = 0.1802 | 0.0181
x2 = 0.2238 | 0.0215
x2 = 0.2732 | 0.0248
x2 = 0.3311 | 0.0277
x2 = 0.3913 | 0.0298
x2 = 0.4461 | 0.0302
x2 = 0.4803 | 0.0304
x2 = 0.5365 | 0.0299
x2 = 0.5868 | 0.0293
x2 = 0.6344 | 0.0276
x2 = 0.6802 | 0.0249
x2 = 0.7355 | 0.0221
x2 = 0.7832 | 0.0184
x2 = 0.8326 | 0.0149
x2 = 0.8914 | 0.00963
x2 = 0.9336 | 0.00607

c1ccncc1 [pyridine] + C1CCOCC1
[1]
Details | mass density, 298.15 K [kg/m3] | mass density, 303.15 K [kg/m3] | mass density, 308.15 K [kg/m3] | speed of sound, 298.15 K [m/s] | speed of sound, 303.15 K [m/s] | speed of sound, 308.15 K [m/s]
x2 = 0 | 978.249 | 973.224 | 968.166 | 1417.6 | 1397.4 | 1377.1
x2 = 0.0427 | 973.663 | 968.634 | 963.658 | 1411.9 | 1391.4 | 1370.9
x2 = 0.1021 | 967.309 | 962.276 | 957.232 | 1403.6 | 1382.9 | 1362.3
x2 = 0.1883 | 958.157 | 953.12 | 948.063 | 1391.4 | 1370.2 | 1349.4
x2 = 0.2415 | 952.565 | 947.532 | 942.634 | 1383.7 | 1362.2 | 1341.1
x2 = 0.2853 | 948.002 | 942.969 | 938.037 | 1377.4 | 1355.6 | 1334.3
x2 = 0.3438 | 941.972 | 936.936 | 931.957 | 1368.8 | 1346.7 | 1325.4
x2 = 0.3742 | 938.871 | 933.829 | 928.814 | 1364.2 | 1342.1 | 1320.6
x2 = 0.4263 | 933.597 | 928.553 | 923.491 | 1356.5 | 1334 | 1312.5
x2 = 0.4642 | 929.793 | 924.748 | 919.649 | 1350.7 | 1328.2 | 1306.7
x2 = 0.5364 | 922.65 | 917.601 | 912.425 | 1339.8 | 1317.1 | 1295.4
x2 = 0.5721 | 919.167 | 914.108 | 908.895 | 1334.4 | 1311.6 | 1289.8
x2 = 0.6283 | 913.73 | 908.661 | 903.408 | 1325.8 | 1302.9 | 1281.1
x2 = 0.6872 | 908.097 | 903.027 | 897.739 | 1316.9 | 1293.9 | 1271.9
x2 = 0.7336 | 903.711 | 898.628 | 893.335 | 1309.8 | 1286.9 | 1264.7
x2 = 0.7823 | 899.149 | 894.056 | 888.752 | 1302.5 | 1279.5 | 1257.3
x2 = 0.8351 | 894.248 | 889.143 | 883.845 | 1294.4 | 1271.5 | 1249.2
x2 = 0.8752 | 890.543 | 885.431 | 880.16 | 1288.5 | 1265.4 | 1243.1
x2 = 0.9354 | 885.027 | 879.898 | 874.668 | 1279.5 | 1256.4 | 1234.1

[2]
Details | excess molar enthalpy [kcal/mol]
x2 = 0.0552 | 0.00315
x2 = 0.1006 | 0.00626
x2 = 0.1525 | 0.0101
x2 = 0.2014 | 0.0141
x2 = 0.2915 | 0.0215
x2 = 0.3462 | 0.0254
x2 = 0.3871 | 0.029
x2 = 0.4217 | 0.0314
x2 = 0.4853 | 0.0347
x2 = 0.5363 | 0.0376
x2 = 0.5802 | 0.0387
x2 = 0.6461 | 0.039
x2 = 0.6864 | 0.0391
x2 = 0.7344 | 0.0374
x2 = 0.7856 | 0.0341
x2 = 0.8315 | 0.0298
x2 = 0.8911 | 0.0219
x2 = 0.9347 | 0.0139

Cc1ccncc1 [4-methylpyridine] + C1CCOCC1
[1]
Details | mass density, 298.15 K [kg/m3] | mass density, 303.15 K [kg/m3] | mass density, 308.15 K [kg/m3] | speed of sound, 298.15 K [m/s] | speed of sound, 303.15 K [m/s] | speed of sound, 308.15 K [m/s]
x2 = 0 | 950.179 | 945.413 | 940.821 | 1431.5 | 1410.7 | 1389.9
x2 = 0.0521 | 946.678 | 941.884 | 936.955 | 1422.7 | 1402.2 | 1380.6
x2 = 0.0832 | 944.577 | 939.773 | 935.004 | 1417.5 | 1397.2 | 1376.2
x2 = 0.1426 | 940.548 | 935.733 | 931.541 | 1407.8 | 1387.6 | 1368.4
x2 = 0.1882 | 937.434 | 932.615 | 928.307 | 1400.5 | 1380.3 | 1360.8
x2 = 0.2536 | 932.939 | 928.121 | 923.922 | 1390.1 | 1369.7 | 1350.5
x2 = 0.2902 | 930.406 | 925.591 | 921.331 | 1384.3 | 1363.8 | 1344.4
x2 = 0.3415 | 926.841 | 922.019 | 917.744 | 1376.1 | 1355.3 | 1336
x2 = 0.3782 | 924.275 | 919.451 | 914.432 | 1370.3 | 1349.3 | 1328
x2 = 0.4323 | 920.471 | 915.637 | 911.254 | 1361.6 | 1340.5 | 1320.8
x2 = 0.4913 | 916.295 | 911.443 | 907.207 | 1352.1 | 1330.7 | 1311.3
x2 = 0.5437 | 912.559 | 907.692 | 903.227 | 1343.6 | 1322 | 1302.1
x2 = 0.5991 | 908.587 | 903.687 | 899.247 | 1334.5 | 1312.8 | 1292.8
x2 = 0.6427 | 905.441 | 900.515 | 895.885 | 1327.3 | 1305.5 | 1285.2
x2 = 0.7015 | 901.173 | 896.211 | 891.453 | 1317.7 | 1295.7 | 1275
x2 = 0.7822 | 895.277 | 890.253 | 887.03 | 1304.4 | 1282.3 | 1264.5
x2 = 0.8263 | 892.032 | 886.976 | 882.795 | 1297.2 | 1275 | 1255.2
x2 = 0.8846 | 887.726 | 882.631 | 877.665 | 1287.9 | 1265.5 | 1243.9
x2 = 0.9435 | 883.352 | 878.225 | 873.901 | 1278.6 | 1255.9 | 1235.3

[2]
Details | excess molar enthalpy [kcal/mol]
x2 = 0.0442 | 0.00296
x2 = 0.1216 | 0.0102
x2 = 0.1982 | 0.0182
x2 = 0.2416 | 0.0233
x2 = 0.2882 | 0.0282
x2 = 0.3401 | 0.0323
x2 = 0.3876 | 0.0366
x2 = 0.4371 | 0.0395
x2 = 0.4834 | 0.0416
x2 = 0.5256 | 0.0419
x2 = 0.5934 | 0.0413
x2 = 0.6433 | 0.039
x2 = 0.6925 | 0.0359
x2 = 0.7367 | 0.0316
x2 = 0.7952 | 0.0256
x2 = 0.8262 | 0.0227
x2 = 0.8842 | 0.015
x2 = 0.9406 | 0.00777
